Data taken from ChEMBL document CHEMBL3046324, “Molecular recognition of long chain fatty acids by peroxisome proliferator-activated receptor” (Med Chem Res, 2009).

Tests used:
[1] = target: T1, Peroxisome proliferator-activated receptor alpha (Homo sapiens, UniProt Q07869); assay: Inhibition of PPAR-alpha (unknown origin) by SPA assay
T1 sequence (Q07869 whole entry): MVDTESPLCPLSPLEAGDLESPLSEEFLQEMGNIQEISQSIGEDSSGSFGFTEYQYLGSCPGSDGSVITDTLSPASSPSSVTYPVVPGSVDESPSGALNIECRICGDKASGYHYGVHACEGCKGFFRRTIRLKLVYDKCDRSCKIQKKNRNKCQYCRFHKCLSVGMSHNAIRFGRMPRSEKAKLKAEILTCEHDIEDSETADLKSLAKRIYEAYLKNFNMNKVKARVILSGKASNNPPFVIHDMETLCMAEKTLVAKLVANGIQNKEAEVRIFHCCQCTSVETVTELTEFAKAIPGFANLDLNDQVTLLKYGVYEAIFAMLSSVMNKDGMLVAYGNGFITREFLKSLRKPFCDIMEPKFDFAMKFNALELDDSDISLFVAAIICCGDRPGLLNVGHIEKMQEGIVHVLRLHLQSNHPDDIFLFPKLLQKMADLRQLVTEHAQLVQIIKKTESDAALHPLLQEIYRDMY

[2] = target: T1, Peroxisome proliferator-activated receptor alpha; assay: Binding affinity to PPAR-alpha (unknown origin) by fluorescence-based assay

Row | Compound | IC50 [1] | Kd [2]
1 | CCCCC/C=C\C/C=C\C/C=C\C/C=C\CCCC(=O)O [ARACHIDONIC ACID] | 1.2 µM | –
2 | CCCCC/C=C\C/C=C\C/C=C\CCCCCCC(=O)O [DIHOMO-GAMMA-LINOLENIC ACID] | 1.4 µM | –
3 | CCCCCCCC/C=C\CCCCCCCCCCCC(=O)O [ERUCIC ACID] | > 30 µM | –
4 | CCCCC/C=C\C/C=C\C/C=C\CCCCC(=O)O [GAMOLENIC ACID] | 0.27 µM | –
5 | CC/C=C\C/C=C\C/C=C\C/C=C\C/C=C\CCCC(=O)O [ICOSAPENT] | 1.1 µM | –
6 | CCCCC/C=C\C/C=C\CCCCCCCC(=O)O [LINOLEIC ACID] | 1.1 µM | 0.0048 µM
7 | CC/C=C\C/C=C\C/C=C\CCCCCCCC(=O)O [LINOLENIC ACID] | 1.2 µM | 0.0079 µM
8 | CCCCCCCC/C=C\CCCCCCCC(=O)O [OLEIC ACID] | 0.6 µM | –
9 | CCCCCC/C=C\CCCCCCCC(=O)O [PALMITOLEIC ACID] | 1.7 µM | –
